Results reported in patent US12622910B2, “Inhibitors of Bruton's tyrosine kinase and methods of their use” (Janssen Pharmaceutica NV, priority 2021, dated 2026).

Legend:
[1] = target: BTK (Homo sapiens, UniProt Q06187); experiment: Mechanistic PK/BTKO model and simulations; parameters: measuring free BTK levels in peripheral blood mononuclear cells (PBMCs) and calculating % BTKO; endogenous in cells; host or cells: human PBMCs, lysed after isolation from whole blood
Description: A mechanistic covalent binding model (FIG. 2) was used to describe the receptor occupancy of compound of Formula (III). The equations describing the binding model are shown in equations 1-5.
where symbols represent the free BTK protein concentration (BTK), drug-BTK complex (BTKb) and covalently bound complex (BTKi). The rate constants in the equations include zero-order rate of BTK synthesis (ksyn); the first-order rate of free BTK degradation (kdegf); the first-order rate of covalently bound complex degradation (Kdegi); association rate drug-BTK binding (kon); dissociation rate drug-BTK binding (koff). C1 is the concentration in central compartment. BTK0 is the baseline value of BTK. […]
In order to refine predictions of % BTKO after multiple dosing for the MAD cohorts and to help select a starting dose for the subsequent first-in-patient oncology study, a prior mechanistic PK/PD model based on in vitro and in vivo BTKO data was updated with clinical PK/BTKO data collected from SAD cohorts of the FIH study. […] The evaluated dosing regimens included 12 mg, 36 mg, 70 mg, 100 mg, 140 mg, 200 mg QD dose. […]
Once MAD data were available, the semi-mechanistic PK/PD model was updated with the acquired data from SAD and MAD cohorts. All covariate effects in the popPK analysis were evaluated on clearance from the central compartment (CL/F) only, except for body weight, food effect, and drug formulation. […]

[2] = target: T1, CYP2A6 (Homo sapiens, UniProt P11509); experiment: CYP inhibition in human liver microsomes; format: in vitro ADME; conditions: probe Coumarin
T1 construct: with specific CYP probe substrates in human liver microsomes; from tissue; host or cells: human liver microsomes
T1 sequence (P11509 whole entry): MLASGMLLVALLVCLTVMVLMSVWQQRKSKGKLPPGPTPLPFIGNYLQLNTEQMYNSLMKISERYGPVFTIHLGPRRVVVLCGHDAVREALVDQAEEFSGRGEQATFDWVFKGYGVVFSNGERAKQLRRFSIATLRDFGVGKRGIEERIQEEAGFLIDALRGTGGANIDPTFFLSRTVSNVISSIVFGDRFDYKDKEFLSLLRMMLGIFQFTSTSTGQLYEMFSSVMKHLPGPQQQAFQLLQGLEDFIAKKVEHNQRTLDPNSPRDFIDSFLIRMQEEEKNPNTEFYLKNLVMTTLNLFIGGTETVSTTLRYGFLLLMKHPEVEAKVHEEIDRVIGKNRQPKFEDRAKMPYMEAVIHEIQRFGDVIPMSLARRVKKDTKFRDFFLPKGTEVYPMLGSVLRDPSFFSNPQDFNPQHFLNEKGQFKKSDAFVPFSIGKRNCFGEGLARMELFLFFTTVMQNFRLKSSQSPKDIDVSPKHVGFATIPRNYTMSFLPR
Description: (§1) The potential of the compound of Formula (III) to inhibit human CYP450s in vitro was investigated up to test concentrations of 50 μM by incubating the compound of Formula (III) with specific CYP probe substrates in human liver microsomes and measuring probe metabolite formation.

[3] = target: T2, CYP2E1 (Homo sapiens, UniProt P05181); experiment: CYP inhibition in human liver microsomes; format: in vitro ADME; conditions: probe Chlorzoxazone
T2 construct: with specific CYP probe substrates in human liver microsomes; from tissue; host or cells: human liver microsomes
T2 sequence (P05181 whole entry): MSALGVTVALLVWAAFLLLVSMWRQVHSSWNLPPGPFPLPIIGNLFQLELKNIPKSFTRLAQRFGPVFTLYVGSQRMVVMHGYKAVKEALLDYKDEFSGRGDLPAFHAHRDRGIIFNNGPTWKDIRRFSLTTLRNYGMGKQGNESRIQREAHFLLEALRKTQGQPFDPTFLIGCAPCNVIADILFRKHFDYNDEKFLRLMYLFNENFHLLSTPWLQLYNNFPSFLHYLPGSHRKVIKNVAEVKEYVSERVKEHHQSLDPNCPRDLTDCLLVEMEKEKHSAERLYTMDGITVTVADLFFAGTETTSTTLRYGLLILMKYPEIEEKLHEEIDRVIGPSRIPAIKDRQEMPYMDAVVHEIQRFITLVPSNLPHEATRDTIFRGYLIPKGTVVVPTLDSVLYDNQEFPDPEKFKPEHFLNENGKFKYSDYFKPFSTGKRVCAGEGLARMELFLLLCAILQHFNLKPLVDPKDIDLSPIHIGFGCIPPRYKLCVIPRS
Description: as §1

[4] = target: T3, CYP3A4 (Homo sapiens, UniProt P08684); experiment: CYP inhibition in human liver microsomes; format: in vitro ADME
T3 construct: with specific CYP probe substrates in human liver microsomes; from tissue; host or cells: human liver microsomes
T3 sequence (P08684 whole entry): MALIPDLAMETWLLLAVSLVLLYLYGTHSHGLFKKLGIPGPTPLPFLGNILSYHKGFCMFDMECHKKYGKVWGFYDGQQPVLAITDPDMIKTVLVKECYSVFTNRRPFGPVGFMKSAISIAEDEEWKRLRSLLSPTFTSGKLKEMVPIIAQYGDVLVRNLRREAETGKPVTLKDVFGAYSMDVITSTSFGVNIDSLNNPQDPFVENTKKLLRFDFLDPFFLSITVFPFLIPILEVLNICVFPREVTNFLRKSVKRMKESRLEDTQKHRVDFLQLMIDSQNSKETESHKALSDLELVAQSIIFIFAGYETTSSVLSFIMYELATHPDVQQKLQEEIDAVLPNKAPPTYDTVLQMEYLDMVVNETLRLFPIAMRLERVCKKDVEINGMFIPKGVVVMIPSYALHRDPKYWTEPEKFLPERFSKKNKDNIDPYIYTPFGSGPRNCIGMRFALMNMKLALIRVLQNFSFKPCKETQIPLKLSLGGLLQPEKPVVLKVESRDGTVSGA
Description: as §1

[5] = target: T4, CYP2C8 (Homo sapiens, UniProt P10632); experiment: CYP inhibition in human liver microsomes; format: in vitro ADME; conditions: probe Amodiaquine
T4 construct: with specific CYP probe substrates in human liver microsomes; from tissue; host or cells: human liver microsomes
Description: as §1

[6] = target: T5, CYP2C9 (Homo sapiens, UniProt P11712); experiment: CYP inhibition in human liver microsomes; format: in vitro ADME
T5 construct: with specific CYP probe substrates in human liver microsomes; from tissue; host or cells: human liver microsomes
T5 sequence (P11712 whole entry): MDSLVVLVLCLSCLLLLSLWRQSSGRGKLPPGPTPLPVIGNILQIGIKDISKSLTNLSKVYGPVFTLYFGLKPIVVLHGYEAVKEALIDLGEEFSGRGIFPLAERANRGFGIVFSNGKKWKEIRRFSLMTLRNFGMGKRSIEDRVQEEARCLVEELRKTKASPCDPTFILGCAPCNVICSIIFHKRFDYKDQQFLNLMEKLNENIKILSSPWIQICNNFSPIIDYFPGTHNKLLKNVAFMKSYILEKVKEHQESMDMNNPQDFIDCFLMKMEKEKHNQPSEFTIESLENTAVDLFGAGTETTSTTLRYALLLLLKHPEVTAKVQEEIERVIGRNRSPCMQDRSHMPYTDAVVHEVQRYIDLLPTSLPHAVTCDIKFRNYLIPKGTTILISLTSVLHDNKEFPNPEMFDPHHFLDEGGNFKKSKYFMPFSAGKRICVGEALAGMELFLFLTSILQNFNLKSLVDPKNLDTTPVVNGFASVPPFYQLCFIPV
Description: as §1

[7] = target: T6, CYP1A2 (Homo sapiens, UniProt P05177); experiment: CYP inhibition in human liver microsomes; format: in vitro ADME; conditions: probe Phenacetin
T6 construct: with specific CYP probe substrates in human liver microsomes; from tissue; host or cells: human liver microsomes
T6 sequence (P05177 whole entry): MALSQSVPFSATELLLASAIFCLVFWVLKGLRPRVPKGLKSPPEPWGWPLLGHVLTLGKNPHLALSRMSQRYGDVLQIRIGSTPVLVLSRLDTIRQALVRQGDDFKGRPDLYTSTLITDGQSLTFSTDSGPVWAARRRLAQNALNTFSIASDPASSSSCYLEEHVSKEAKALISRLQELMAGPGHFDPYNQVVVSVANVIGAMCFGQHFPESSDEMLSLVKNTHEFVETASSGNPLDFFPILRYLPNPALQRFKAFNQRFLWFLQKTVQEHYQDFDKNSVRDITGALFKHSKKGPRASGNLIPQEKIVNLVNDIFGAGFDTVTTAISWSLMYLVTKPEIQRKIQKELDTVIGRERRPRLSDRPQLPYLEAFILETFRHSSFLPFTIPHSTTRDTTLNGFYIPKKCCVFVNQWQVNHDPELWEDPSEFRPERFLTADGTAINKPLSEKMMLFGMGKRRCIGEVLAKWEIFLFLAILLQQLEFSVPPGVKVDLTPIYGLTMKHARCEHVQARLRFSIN
Description: as §1

[8] = target: T7, CYP2D6 (Homo sapiens, UniProt P10635); experiment: CYP inhibition in human liver microsomes; format: in vitro ADME; conditions: probe Dextromethorphan
T7 construct: with specific CYP probe substrates in human liver microsomes; from tissue; host or cells: human liver microsomes
T7 sequence (P10635 whole entry): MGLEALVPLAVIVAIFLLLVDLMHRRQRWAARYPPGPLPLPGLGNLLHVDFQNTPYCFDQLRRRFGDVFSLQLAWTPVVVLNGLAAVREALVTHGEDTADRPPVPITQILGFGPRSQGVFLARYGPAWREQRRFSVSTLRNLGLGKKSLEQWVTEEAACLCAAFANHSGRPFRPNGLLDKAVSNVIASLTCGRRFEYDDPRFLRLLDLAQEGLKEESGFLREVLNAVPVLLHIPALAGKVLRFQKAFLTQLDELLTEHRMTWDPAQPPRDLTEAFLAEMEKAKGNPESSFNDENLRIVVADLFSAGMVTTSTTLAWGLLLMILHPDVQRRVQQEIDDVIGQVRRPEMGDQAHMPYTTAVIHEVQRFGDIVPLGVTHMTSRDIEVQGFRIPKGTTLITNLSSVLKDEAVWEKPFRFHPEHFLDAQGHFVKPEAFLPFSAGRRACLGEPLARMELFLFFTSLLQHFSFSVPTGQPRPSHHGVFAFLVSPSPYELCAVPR
Description: as §1

[9] = target: T8, CYP2C19 (Homo sapiens, UniProt P33261); experiment: CYP inhibition in human liver microsomes; format: in vitro ADME; conditions: probe S-Mephenytoin
T8 construct: with specific CYP probe substrates in human liver microsomes; from tissue; host or cells: human liver microsomes
T8 sequence (P33261 whole entry): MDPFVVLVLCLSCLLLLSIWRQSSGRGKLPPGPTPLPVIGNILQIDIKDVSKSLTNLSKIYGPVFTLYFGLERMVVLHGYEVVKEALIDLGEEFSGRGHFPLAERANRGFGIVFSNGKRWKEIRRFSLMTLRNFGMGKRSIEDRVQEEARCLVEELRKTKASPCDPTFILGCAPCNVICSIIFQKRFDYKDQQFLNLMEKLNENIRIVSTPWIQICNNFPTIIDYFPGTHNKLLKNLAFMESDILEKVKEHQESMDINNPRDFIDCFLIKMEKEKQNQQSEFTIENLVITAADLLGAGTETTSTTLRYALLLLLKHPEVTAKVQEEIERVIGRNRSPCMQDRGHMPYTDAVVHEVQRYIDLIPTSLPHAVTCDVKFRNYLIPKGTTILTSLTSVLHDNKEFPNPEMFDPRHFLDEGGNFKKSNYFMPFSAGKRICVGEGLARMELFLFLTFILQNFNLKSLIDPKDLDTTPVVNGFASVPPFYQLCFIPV
Description: as §1

[10] = target: T9, CYP2B6 (Homo sapiens, UniProt P20813); experiment: CYP inhibition in human liver microsomes; format: in vitro ADME; conditions: probe Bupropion
T9 construct: with specific CYP probe substrates in human liver microsomes; from tissue; host or cells: human liver microsomes
T9 sequence (P20813 whole entry): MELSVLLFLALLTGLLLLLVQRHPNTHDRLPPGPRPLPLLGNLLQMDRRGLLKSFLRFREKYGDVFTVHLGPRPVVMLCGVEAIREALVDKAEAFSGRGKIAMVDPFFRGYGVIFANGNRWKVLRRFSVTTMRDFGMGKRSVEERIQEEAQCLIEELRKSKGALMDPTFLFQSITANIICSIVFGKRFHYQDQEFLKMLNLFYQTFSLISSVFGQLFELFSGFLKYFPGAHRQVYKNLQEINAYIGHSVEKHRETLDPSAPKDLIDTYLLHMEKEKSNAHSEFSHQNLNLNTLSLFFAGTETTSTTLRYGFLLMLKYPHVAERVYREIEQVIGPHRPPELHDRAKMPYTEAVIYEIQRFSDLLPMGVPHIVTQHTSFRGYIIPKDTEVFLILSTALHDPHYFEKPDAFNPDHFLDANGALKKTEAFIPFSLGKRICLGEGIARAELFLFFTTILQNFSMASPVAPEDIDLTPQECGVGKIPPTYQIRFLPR
Description: as §1

BTK, sequence (Q06187 whole entry): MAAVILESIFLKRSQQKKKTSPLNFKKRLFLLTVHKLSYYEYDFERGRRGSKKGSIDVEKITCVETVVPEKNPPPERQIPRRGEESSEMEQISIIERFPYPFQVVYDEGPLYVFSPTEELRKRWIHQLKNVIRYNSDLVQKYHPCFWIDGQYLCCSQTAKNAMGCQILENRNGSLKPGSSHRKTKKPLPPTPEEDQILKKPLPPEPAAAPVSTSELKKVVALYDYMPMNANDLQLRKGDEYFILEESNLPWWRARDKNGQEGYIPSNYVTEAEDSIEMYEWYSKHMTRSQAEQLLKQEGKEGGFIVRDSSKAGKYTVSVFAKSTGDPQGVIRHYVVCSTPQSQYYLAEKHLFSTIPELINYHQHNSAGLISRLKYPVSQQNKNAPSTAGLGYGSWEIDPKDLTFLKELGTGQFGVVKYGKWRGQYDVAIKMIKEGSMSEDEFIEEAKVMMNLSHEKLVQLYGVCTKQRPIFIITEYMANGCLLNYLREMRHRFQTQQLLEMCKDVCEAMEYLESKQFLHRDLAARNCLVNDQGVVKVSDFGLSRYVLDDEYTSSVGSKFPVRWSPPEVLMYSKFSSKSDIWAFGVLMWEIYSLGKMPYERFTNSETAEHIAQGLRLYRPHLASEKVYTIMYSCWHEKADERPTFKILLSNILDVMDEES

For `C=CC(=O)N[C@H]1CCC[C@H]1NC(=O)c1sc2nccc3c2c1NC(=O)N3c1cnc(CC(C)C)cc1C` (atropisomer, axis not shown) [compound of Formula (III), N-((1R,2S)-2-Acrylamidocyclopentyl)-5-(S)-(6-isobutyl-4-methylpyridin-3-yl)-4-oxo-4,5-dihydro-3H-1-thia-3,5,8-triazaacenaphthylene-2-carboxamide], the “kon, PD model estimate” value ([1]; model (A), SAD cohorts 2-5) was 0.0447 l/nM/h, the “kon, PD model estimate” value ([1]; model (B), all SAD and MAD data) was 0.0509 l/nM/h and the IC50 [2] was greater than 50 µM. For the same compound, the IC50 [3] was greater than 50 µM, the IC50 ([4]; probe Midazolam) was 25 µM and the IC50 ([4]; probe Nifedipine) was greater than 50 µM. For the same compound, the IC50 ([4]; probe Testosterone) was 40 µM, the IC50 [5] was 16 µM and the IC50 ([6]; probe Diclofenac) was 3 µM. It also gave an IC50 ([6]; probe Tolbutamide) of 5.3 µM, an IC50 [7] greater than 50 µM and an IC50 [8] of 26 µM. The IC50 [9] was greater than 50 µM and the IC50 [10] was greater than 50 µM.
